According to US7030265B2, “Retinol derivatives, the method of preparations and the uses thereof” (Chebigen, Inc., priority 2001, dated 2006):
“And” between values parts separate entries of the source, which are not always exact repeats. Equal values may be shown once.

What was measured:
Assay type in all cases: cell-based
[1] = system: activation protein-1 (AP-1); experiment: Activity inhibition test of AP-1, Coll-CAT reporter in HaCAT cells; conditions: c-Jun expression, in the presence of retinoic acid receptor α, CAT ELISA, FIG. 6
Procedure: Since the activation protein-1 (c-Jun is the constituent of AP-1) is transcription factor inducing expression of collagenase enzyme, which is a major cause of skin wrinkle, the effect of wrinkle prevention was determined by the activity inhibition test of AP-1.
CAT reporter (Coll-CAT) containing collagen promoter including AP-1 transcription factor binding site (TRE) were utilized to cotransfect skin cancer (HaCAT) cell line. The effect of retinol derivatives on the activity of AP-1 was measured by CAT ELISA. In some cases, the vector expressing c-Jun or retinoic acid receptors were utilized to cotransfect, and the effect of retinol derivatives on the transcription activity of c-Jun was analyzed.
With the assumption of the prepared retinol-(N-formyl-aspartam) derivatives which inhibit the activity of AP-1 causing skin wrinkle, would have the utility for cosmetics, the related investigations were proceeded. Similar to the experiment of retinoic acid receptor, AP-1 (c-jun) expression vector and Coll-CAT plasmid for the activity measurement were introduced into the skin cancer (HaCAT) cell line with liposome. After treating the cells with retinol-(N-formyl-aspartam) derivatives, the cell extracts were isolated. The expression level of CAT were measured with CAT ELISA to determine the effect of retinol-(N-formyl-aspartam) on the activity of the AP-1.

[2] = system: activation protein-1 (AP-1); experiment: Activity inhibition test of AP-1, Coll-CAT reporter in Cos-1 cells; conditions: for lowered the expression of collagenase (Coll-CAT): expression level in the presence of c-Jun expression set as 100%; for effect on AP-1 activity inhibition, compared in words: Coll-CAT
From the text: CAT reporter (Coll-CAT) containing collagen promoter including AP-1 transcription factor binding site (TRE) was utilized to transfect Cos-1 cell line. Activity inhibition tests of activation protein-1 (AP-1) similar to the experimental example 6 were proceeded.

[3] = target: T1, retinoic acid receptor β (Homo sapiens, UniProt P10826); experiment: RAR activity test, DR5-tk-CAT reporter in Cos-1 cells; conditions: 1 μM, CAT ELISA, FIG. 3-5
T1 construct: expressed in transfected cells; b135 says HaCAT
T1 sequence (P10826 1-455): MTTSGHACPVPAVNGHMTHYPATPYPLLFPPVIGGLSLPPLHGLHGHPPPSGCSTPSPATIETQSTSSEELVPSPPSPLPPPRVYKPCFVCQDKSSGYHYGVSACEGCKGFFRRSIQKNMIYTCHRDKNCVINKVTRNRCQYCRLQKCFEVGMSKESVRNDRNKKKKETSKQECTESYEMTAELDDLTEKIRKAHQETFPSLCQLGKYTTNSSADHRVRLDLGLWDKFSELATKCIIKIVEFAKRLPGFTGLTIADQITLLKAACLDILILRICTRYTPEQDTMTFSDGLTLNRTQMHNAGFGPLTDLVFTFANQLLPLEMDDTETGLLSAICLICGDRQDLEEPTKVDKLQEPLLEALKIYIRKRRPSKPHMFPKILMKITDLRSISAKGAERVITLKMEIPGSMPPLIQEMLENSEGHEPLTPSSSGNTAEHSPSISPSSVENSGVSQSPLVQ

[4] = target: T2, retinoic acid receptor γ (Homo sapiens, UniProt P13631); experiment: as above; conditions: 1 μM, CAT ELISA, FIG. 3-5
T2 construct: expressed in transfected cells; b135 says HaCAT
T2 sequence (P13631 1-454): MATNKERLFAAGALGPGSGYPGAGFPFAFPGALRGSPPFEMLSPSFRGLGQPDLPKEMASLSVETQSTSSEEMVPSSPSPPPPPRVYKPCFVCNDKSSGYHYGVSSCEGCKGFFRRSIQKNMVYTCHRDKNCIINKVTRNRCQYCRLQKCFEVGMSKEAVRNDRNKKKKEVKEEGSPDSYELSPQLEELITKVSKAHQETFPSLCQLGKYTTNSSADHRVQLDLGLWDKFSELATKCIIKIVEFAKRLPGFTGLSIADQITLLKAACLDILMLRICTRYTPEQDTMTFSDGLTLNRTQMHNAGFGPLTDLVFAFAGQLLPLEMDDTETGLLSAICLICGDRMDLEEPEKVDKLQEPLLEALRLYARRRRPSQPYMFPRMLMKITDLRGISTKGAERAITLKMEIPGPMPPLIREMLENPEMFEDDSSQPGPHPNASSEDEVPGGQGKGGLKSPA

[5] = target: T3, retinoic acid receptor α (Homo sapiens, UniProt P10276); experiment: as above; conditions: 1 μM, CAT ELISA, FIG. 3-5
T3 construct: expressed in transfected cells; b135 says HaCAT
T3 sequence (P10276 1-462): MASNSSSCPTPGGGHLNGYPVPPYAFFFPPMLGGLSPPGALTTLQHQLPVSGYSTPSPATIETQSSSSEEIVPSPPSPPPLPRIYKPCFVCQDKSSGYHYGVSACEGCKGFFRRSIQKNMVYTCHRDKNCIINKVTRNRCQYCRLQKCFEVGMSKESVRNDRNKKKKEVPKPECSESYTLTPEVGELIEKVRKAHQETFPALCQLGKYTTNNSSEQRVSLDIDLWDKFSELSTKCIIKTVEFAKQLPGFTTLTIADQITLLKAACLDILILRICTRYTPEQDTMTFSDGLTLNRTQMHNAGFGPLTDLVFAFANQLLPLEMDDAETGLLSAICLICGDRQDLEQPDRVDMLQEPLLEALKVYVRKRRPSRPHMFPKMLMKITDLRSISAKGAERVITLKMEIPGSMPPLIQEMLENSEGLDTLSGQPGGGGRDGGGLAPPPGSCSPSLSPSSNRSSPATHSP
From the text: Recombinant DNA, DR5-tk-CAT consisting of DR5, effectors of retinoic acid receptor/retinoid X receptor, thymine kinase promoter, and CAT (chloramphenicol acetyl transferase) were mixed with the plasmid DNA expressing retinoic acid receptor α, β, ? and utilized to cotransfect skin cancer (HaCAT) cell line with lipofectamine (GibcoBRL). […] The cells were washed with phosphate-buffered saline (PBS), and the proteins were isolated from each cells, and the activity of β-galactosidase and protein contents were measured to determine transfection efficacy, the transcription level of RAR receptor were measured with CAT ELISA.
(§1) All procedures were done as Experimental Example 3.
as §1

[6] = target: T3, retinoic acid receptor α; experiment: RAR activity test, DR5-tk-CAT reporter in HaCAT cells; conditions: 1 μM, CAT ELISA, FIG. 2 (A)
From the text: (§2) To analyze the effects of retinol-(N-formyl-aspartam) on the activity of retinoic acid receptor, skin cancer (HaCAT) cell lines were utilized to measure the activity of retinoic acid receptor/retinoid X receptor.
(§3) Recombinant DNA, DR5-tk-CAT or DR1-tk-CAT consisting of DR1 or DR5, effectors of retinoic acid receptor/retinoid X receptor, thymine kinase promoter, and CAT(chloramphenicol acetyl transferase) were mixed with the plasmid DNA expressing retinoic acid receptor α, β, ? or retinoid X receptor α, β, ? to cotransfect skin cancer (HaCAT) cell line with lipofectamine (GibcoBRL). The cotransfected cell lines were cultured for 1 day on DMEM/10% FBS media, each retinol derivatives (1 μM) were added and cultured for one more day, 5% CO2, 37° C. The cells were washed with phosphate-buffered saline (PBS), and the proteins were isolated from each cells, and the activity of β-galactosidase and protein contents were measured to determine transfection efficacy, the transcription level of RAR or RXR receptor were measured with CAT ELISA (Roche Molecular Biochemical, Mannheim, Germany).
To determine the effect of retinol-(N-formyl-aspartam) on retinoic acid receptors, each retinoic acid receptor (α, β, or ? ) expression vector and activity measuring DR5-tk-CAT plasmid were introduced with liposome. After treating cells with retinol-(N-formyl-aspartam), the cell extracts were isolated. The expression level of CAT were measured with CAT ELISA to determine the effect of retinol-(N-formyl-aspartam) on the activity of retinoic acid receptors.

[7] = target: T4, retinoid X receptor α (Homo sapiens, UniProt P19793); experiment: RXR activity test, DR1-tk-CAT reporter in HaCAT cells; conditions: 1 μM, CAT ELISA, FIG. 2 (B)
T4 construct: expressed in transfected cells; host or cells: HaCAT
T4 sequence (P19793 1-462): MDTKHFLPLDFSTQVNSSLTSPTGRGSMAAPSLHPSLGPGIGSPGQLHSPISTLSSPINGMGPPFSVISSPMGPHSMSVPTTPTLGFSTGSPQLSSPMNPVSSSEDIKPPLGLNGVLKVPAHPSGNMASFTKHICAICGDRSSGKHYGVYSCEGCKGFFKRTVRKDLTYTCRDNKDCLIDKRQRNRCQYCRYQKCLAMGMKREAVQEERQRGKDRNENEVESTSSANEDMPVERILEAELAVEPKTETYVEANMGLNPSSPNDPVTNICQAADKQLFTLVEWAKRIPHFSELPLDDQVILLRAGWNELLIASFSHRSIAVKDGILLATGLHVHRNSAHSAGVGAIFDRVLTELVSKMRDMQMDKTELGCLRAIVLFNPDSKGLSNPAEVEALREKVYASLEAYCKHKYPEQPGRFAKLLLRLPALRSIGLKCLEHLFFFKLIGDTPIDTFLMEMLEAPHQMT
From the text: as §2, §3

[8] = target: T5, retinoid X receptor β (Homo sapiens, UniProt P28702); experiment: as above; conditions: 1 μM, CAT ELISA, FIG. 2 (B)
T5 construct: expressed in transfected cells; host or cells: HaCAT
T5 sequence (P28702 1-533): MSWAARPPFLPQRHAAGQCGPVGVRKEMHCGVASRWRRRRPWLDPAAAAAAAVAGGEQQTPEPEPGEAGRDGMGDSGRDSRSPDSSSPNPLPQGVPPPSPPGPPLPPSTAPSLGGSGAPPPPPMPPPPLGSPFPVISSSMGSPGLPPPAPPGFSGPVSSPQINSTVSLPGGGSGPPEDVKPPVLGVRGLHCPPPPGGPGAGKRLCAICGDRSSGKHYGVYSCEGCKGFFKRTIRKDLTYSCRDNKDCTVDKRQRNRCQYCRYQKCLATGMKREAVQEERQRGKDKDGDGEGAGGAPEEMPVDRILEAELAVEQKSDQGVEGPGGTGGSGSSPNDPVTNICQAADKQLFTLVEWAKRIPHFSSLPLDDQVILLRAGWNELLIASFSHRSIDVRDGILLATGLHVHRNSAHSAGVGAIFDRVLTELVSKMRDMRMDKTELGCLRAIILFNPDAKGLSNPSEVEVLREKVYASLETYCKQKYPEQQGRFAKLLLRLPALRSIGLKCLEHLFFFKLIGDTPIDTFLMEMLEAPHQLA
From the text: as §2, §3

[9] = target: T6, retinoid X receptor γ (Homo sapiens, UniProt P48443); experiment: as above; conditions: 1 μM, CAT ELISA, FIG. 2 (B)
T6 construct: expressed in transfected cells; host or cells: HaCAT
T6 sequence (P48443 1-463): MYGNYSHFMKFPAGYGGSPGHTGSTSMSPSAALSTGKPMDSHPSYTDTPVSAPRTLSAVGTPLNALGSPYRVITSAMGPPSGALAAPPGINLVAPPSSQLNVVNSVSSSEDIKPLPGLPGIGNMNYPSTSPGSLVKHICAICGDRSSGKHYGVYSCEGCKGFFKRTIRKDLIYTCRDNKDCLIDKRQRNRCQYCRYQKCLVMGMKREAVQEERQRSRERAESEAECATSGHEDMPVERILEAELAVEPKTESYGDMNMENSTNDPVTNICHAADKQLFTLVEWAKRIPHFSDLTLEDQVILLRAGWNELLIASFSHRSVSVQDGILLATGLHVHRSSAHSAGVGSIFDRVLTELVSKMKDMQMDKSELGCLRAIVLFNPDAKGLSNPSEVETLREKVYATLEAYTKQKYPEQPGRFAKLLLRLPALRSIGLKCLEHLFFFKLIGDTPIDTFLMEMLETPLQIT
From the text: as §2, §3

Row | SMILES | lowered the expression of collagenase (Coll-CAT) [1] | lowered the expression of collagenase (Coll-CAT) [2] | activation of retinoic acid receptor β [3] | activation of retinoic acid receptor γ [4] | effect on AP-1 activity inhibition, compared in words [2] | activation of retinoic acid receptor α [5] | activation of retinoic acid receptor α [6] | activation of retinoid X receptor α [7] | activation of retinoid X receptor β [8] | activation of retinoid X receptor γ [9]
1 | CC1=C(/C=C/C(C)=C/C=C/C(C)=C/C(=O)O)C(C)(C)CCC1 [retinoic acid, reference compound] | approximately 60% | ~50% and ~47.5% | – | – | – | – | – | – | – | –
2 | CC1=C(/C=C/C(C)=C/C=C/C(C)=C/COC(=O)/C=C/C(=O)OC/C=C(C)/C=C/C=C(C)/C=C/C2=C(C)CCCC2(C)C)C(C)(C)CCC1 [retinol-(fumalic acid), Di[(2E,4E,6E,8E)-3,7-dimethyl-9-(2,6,6-trimethyl-1-cyclohexenyl)-2,4,6,8-nonatetraenyl] (E)-2-butenedioate] | – | approximately 42% | weak activation | weak activation | no significant effect on AP-1 activity inhibition than retinoic acid or retinol | high activation | – | – | – | –
3 | CC1=C(/C=C/C(C)=C/C=C/C(C)=C/COC(=O)/C=C(\C)C(=O)OC/C=C(C)/C=C/C=C(C)/C=C/C2=C(C)CCCC2(C)C)C(C)(C)CCC1 [retinol-(mesaconic acid), Di[(2E,4E,6E,8E)-3,7-dimethyl-9-(2,6,6-trimethyl-1-cyclohexenyl)-2.4,6,8-nonatetraenyl] (E)-2-methyl-2-butenedioate] | – | ~30% | – | – | less effect on AP-1 activity inhibition than retinoic acid or retinol | – | – | – | – | –
4 | CC1=C(/C=C/C(C)=C/C=C/C(C)=C/COC/C=C(C)/C=C/C=C(C)/C=C/C2=C(C)CCCC2(C)C)C(C)(C)CCC1 [retinol-(retinol), (1E,3E,5E,7E)-9[(2E,4E,6E,8E)-3,7-dimethyl-9-(2,6,6-trimethyl-1-cyclohexenyl)-2,4,6,8-nonatetraenyl]oxy-3,7-dimethyl-1-(2,6,6-trimethyl-1-cyclohexenyl)-1,3,5,7-nonateraene] | – | ~41.5% | weak activation | weak activation | – | high activation | – | – | – | –
5 | CC1=C(/C=C/C(C)=C/C=C/C(C)=C/CO)C(C)(C)CCC1 [retinol] | approximately 47% | approximately 43% | – | – | – | high activation | high activation | no activation | no activation | no activation
